Results from patent publication US12084436B2, “Heterocyclic compound” (Takeda Pharmaceutical Company Limited, priority 2019, dated 2024).

Biological target: T1, HDAC6 enzyme (Homo sapiens, UniProt Q9UBN7)
T1 construct: prepared by transducing full length HDAC6 gene into Sf-9 insect cells; GST; purchased SignalChem; host or cells: Sf-9 insect cells
T1 sequence (Q9UBN7 1-1215): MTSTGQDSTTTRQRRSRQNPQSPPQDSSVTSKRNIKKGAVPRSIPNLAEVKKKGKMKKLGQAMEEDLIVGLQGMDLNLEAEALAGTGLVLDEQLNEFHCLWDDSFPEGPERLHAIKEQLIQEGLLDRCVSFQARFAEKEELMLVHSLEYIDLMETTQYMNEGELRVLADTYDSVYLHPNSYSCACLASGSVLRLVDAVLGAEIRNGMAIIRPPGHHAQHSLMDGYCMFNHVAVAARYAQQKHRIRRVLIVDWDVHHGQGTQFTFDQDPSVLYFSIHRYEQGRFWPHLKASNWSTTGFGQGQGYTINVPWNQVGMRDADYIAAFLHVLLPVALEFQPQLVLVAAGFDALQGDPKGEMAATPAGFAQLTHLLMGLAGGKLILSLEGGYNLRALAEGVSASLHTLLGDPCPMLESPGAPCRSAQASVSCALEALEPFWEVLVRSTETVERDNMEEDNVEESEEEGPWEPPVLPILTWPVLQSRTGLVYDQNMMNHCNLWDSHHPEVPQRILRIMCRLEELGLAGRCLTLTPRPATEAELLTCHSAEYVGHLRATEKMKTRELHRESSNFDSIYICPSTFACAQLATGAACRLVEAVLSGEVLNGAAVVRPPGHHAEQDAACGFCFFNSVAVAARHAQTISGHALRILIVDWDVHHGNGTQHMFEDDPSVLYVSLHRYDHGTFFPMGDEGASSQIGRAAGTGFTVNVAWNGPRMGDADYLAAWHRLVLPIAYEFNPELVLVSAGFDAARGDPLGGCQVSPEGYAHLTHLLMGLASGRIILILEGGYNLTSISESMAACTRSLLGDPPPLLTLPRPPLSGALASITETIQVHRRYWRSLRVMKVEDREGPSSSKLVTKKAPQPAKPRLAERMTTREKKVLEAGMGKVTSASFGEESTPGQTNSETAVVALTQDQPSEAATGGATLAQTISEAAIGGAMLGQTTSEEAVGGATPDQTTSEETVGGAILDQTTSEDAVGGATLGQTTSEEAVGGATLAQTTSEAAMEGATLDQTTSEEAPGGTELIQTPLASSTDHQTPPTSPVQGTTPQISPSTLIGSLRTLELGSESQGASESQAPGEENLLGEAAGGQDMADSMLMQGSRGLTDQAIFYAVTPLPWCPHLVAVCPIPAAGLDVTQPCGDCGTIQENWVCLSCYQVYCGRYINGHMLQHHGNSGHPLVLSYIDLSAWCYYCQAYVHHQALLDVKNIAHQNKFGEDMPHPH
Test: HDAC6 enzyme inhibitory assay (HDAC-Glo I/II Assay kit, luminescence)
Assay type: biochemical
Conditions: 10 μM test compound; wells without enzyme = 100% inhibition; read-out: HDAC6 inhibitory rate (%) (10 μM)
Outline: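 Full-length human HDAC6, GST-purified from Sf-9 cells, was preincubated with compound for 60 min at room temperature in Tris-HCl pH 7.5 buffer with glutathione and Tween-20. Substrate-developer was then added, and luminescence was read after 20 min at room temperature. Inhibition was expressed relative to no-enzyme wells, taken as 100% inhibition.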

| SMILES | inhibition at 10 µM [%] |
| --- | --- |
| COC(=O)c1ccccc1CN(C)N1Cc2ccc(-c3nnc(C(F)F)o3)cc2C1=O [Example 44c, methyl 2-{[{6-[5-(difluoromethyl)-1,3,4-oxadiazol-2-yl]-1-oxo-1,3-dihydro-2H-isoindol-2-yl}(methyl)amino]methyl}benzoate] | 102 |
| O=C1NN(c2ccc(F)c(Cl)c2)Cc2ncc(-c3nnc(C(F)F)o3)cc21 [Example 35b, 7-(3-chloro-4-fluorophenyl)-3-[5-(difluoromethyl)-1,3,4-oxadiazol-2-yl]-7,8-dihydropyrido[2,3-d]pyridazin-5(6H)-one] | 100 |
| O=C1NN(CC(F)(F)F)Cc2ccc(-c3nnc(C(F)F)o3)cc21 [Example 15b, 7-[5-(difluoromethyl)-1,3,4-oxadiazol-2-yl]-3-(2,2,2-trifluoroethyl)-3,4-dihydrophthalazin-1(2H)-one] | 88 |
| Fc1cc(-c2nnc(C(F)F)o2)cc(-c2nccn2Cc2ccccn2)c1 [Example 6a] | 99 |
| COC(=O)N(Cc1ccc(F)cc1)N1Cc2ccc(-c3nnc(C(F)F)o3)cc2C1=O [Example 1c, methyl {6-[5-(difluoromethyl)-1,3,4-oxadiazol-2-yl]-1-oxo-1,3-dihydro-2H-isoindol-2-yl}[(4-fluorophenyl)methyl]carbamate] | 99 |
| Fc1cccc(Cn2ccnc2-c2cc(F)cc(-c3nnc(C(F)F)o3)c2)c1 [Example 44a, 2-(difluoromethyl)-5-(3-fluoro-5-{1-[(3-fluorophenyl)methyl]-1H-imidazol-2-yl}phenyl)-1,3,4-oxadiazole] | 99 |
| O=C(CC(F)(F)F)N(Cc1cnn(C2CC2)c1)N1Cc2ccc(-c3nnc(C(F)F)o3)cc2C1=O [Example 12c, N-[(1-cyclopropyl-1H-pyrazol-4-yl)methyl]-N-{6-[5-(difluoromethyl)-1,3,4-oxadiazol-2-yl]-1-oxo-1,3-dihydro-2H-isoindol-2-yl}-3,3,3-trifluoropropanamide] | 98 |
| COCCn1ccnc1-c1cc(F)cc(-c2nnc(C(F)F)o2)c1 [Example 27a] | 95 |
| Fc1cc(-c2nnc(C(F)F)o2)cc(-c2ncccc2OCc2ccccc2)c1 [Example 5a, 3-(benzyloxy)-2-{3-[5-(difluoromethyl)-1,3,4-oxadiazol-2-yl]-5-fluorophenyl}pyridine] | 98 |
| CN1C(=O)c2cc(-c3nnc(C(F)F)o3)ccc2OC1(C)C1CCCCC1 (centres unmarked) [Example 14b, 2-cyclohexyl-6-[5-(difluoromethyl)-1,3,4-oxadiazol-2-yl]-2,3-dimethyl-2,3-dihydro-4H-1,3-benzoxazin-4-one] | 98 |
| CC(=O)Nc1ccc(CN(C)N2Cc3ccc(-c4nnc(C(F)F)o4)cc3C2=O)cc1 [Example 52c, N-(4-{[{6-[5-(difluoromethyl)-1,3,4-oxadiazol-2-yl]-1-oxo-1,3-dihydro-2H-isoindol-2-yl}(methyl)amino]methyl}phenyl) acetamide] | 100 |
| FC(F)c1nnc(-c2ccnc(-c3nccn3Cc3ccccc3)c2)o1 [Example 36a, 2-(1-benzyl-1H-imidazol-2-yl)-4-[5-(difluoromethyl)-1,3,4-oxadiazol-2-yl]pyridine] | 101 |
| O=C1c2cc(-c3nnc(C(F)F)o3)ccc2CN1N(CCC1CCOCC1)Cc1ccc(F)cc1 [Example 21c, 6-[5-(difluoromethyl)-1,3,4-oxadiazol-2-yl]-2-{[(4-fluorophenyl)methyl][2-(oxan-4-yl)ethyl]amino}-2,3-dihydro-1H-isoindol-1-one] | 99 |
| CN1C(=O)c2cc(-c3nnc(C(F)F)o3)ccc2OC1(C)c1ccc(OC(F)(F)F)cc1 (centres unmarked) [Example 21b, 6-[5-(difluoromethyl)-1,3,4-oxadiazol-2-yl]-2,3-dimethyl-2-[4-(trifluoromethoxy)phenyl]-2,3-dihydro-4H-1,3-benzoxazin-4-one] | 99 |
| Fc1cc(-c2nnc(C(F)F)o2)cc(-c2nccn2Cc2cccnc2)c1 [Example 49a] | 99 |
| O=C1c2cc(-c3nnc(C(F)F)o3)cnc2CN1Nc1c(F)c(F)c(F)c(F)c1F [Example 33c, 3-[5-(difluoromethyl)-1,3,4-oxadiazol-2-yl]-6-(pentafluoroanilino)-6,7-dihydro-5H-pyrrolo[3,4-b]pyridin-5-one] | 99 |
| Fc1cc(-c2nnc(C(F)F)o2)cc(-c2ncccc2OCC2CCOCC2)c1 [Example 7a, 2-{3-[5-(difluoromethyl)-1,3,4-oxadiazol-2-yl]-5-fluorophenyl]-3-[(oxan-4-yl)methoxy]pyridine] | 100 |
| O=C1c2cc(-c3nnc(C(F)F)o3)ccc2CN(c2ccc(F)cc2)N1CC(F)F [Example 48b, 2-(2,2-difluoroethyl)-7-[5-(difluoromethyl)-1,3,4-oxadiazol-2-yl]-3-(4-fluorophenyl)-3,4-dihydrophthalazin-1(2H)-one] | 101 |
| CN(Cc1ccc(F)c(F)c1)N1Cc2ccc(-c3nnc(C(F)F)o3)cc2C1=O [Example 40c, 6-[5-(difluoromethyl)-1,3,4-oxadiazol-2-yl]-2-{[(3,4-difluorophenyl)methyl](methyl)amino}-2,3-dihydro-1H-isoindol-1-one] | 101 |

Further lines, results first:

| inhibition at 10 µM [%] | SMILES |
| --- | --- |
| 100 | CN(Cc1ccc(F)cc1)N1Cc2ncc(-c3nnc(C(F)F)o3)cc2C1=O [Example 69c, 3-[5-(difluoromethyl)-1,3,4-oxadiazol-2-yl]-6-{[(4-fluorophenyl)methyl](methyl)amino}-6,7-dihydro-5H-pyrrolo[3,4-b]pyridin-5-one] |
| 100 | C[C@]1(c2ccc(F)cc2)Cc2ncc(-c3nnc(C(F)F)o3)cc2C(=O)N1CC(F)F [Example 55b, (7R)-6-(2,2-difluoroethyl)-3-[5-(difluoromethyl)-1,3,4-oxadiazol-2-yl]-7-(4-fluorophenyl)-7-methyl-7,8-dihydro-1,6-naphthyridin-5(6H)-one] |
| 99 | FC(F)c1nnc(-c2ccnc(-n3ncc4c3C(c3ccccc3)CCC4)c2)o1 (centres unmarked) [Example 77a] |
| 100 | CN(CC1CCC(F)(F)CC1)N1Cc2ccc(-c3nnc(C(F)F)o3)cc2C1=O [Example 62c, 2-{[(4,4-difluorocyclohexyl)methyl](methyl)amino}-6-[5-(difluoromethyl)-1,3,4-oxadiazol-2-yl]-2,3-dihydro-1H-isoindol-1-one] |
| 101 | COc1cccc(Cn2ccnc2-c2cc(-c3nnc(C(F)F)o3)ccn2)c1 [Example 81a, 4-[5-(difluoromethyl)-1,3,4-oxadiazol-2-yl]-2-{1-[(3-methoxyphenyl)methyl]-1H-imidazol-2-yl}pyridine] |
| 100 | Fc1ccc(Cn2ccnc2-c2cc(-c3nnc(C(F)F)o3)ccn2)nc1 [Example 76a, 4-[5-(difluoromethyl)-1,3,4-oxadiazol-2-yl]-2-{1-[(5-fluoropyridin-2-yl)methyl]-1H-imidazol-2-yl}pyridine] |
| 100 | FC(F)c1nnc(-c2ccnc(-c3nccn3Cc3cncc(Cl)c3)c2)o1 [Example 93a, 2-{1-[(5-chloropyridin-3-yl)methyl]-1H-imidazol-2-yl}-4-[5-(difluoromethyl)-1,3,4-oxadiazol-2-yl]pyridine] |
| 97 | Cc1nc(Cn2ccnc2-c2cc(F)cc(-c3nnc(C(F)F)o3)c2)no1 [Example 55a, 3-[(2-{3-[5-(difluoromethyl)-1,3,4-oxadiazol-2-yl]-5-fluorophenyl}-1H-imidazol-1-yl)methyl]-5-methyl-1,2,4-oxadiazole] |
| 101 | COc1cc(CN(C)N2Cc3ccc(-c4nnc(C(F)F)o4)cc3C2=O)cc(OC)c1 [Example 63c, 6-[5-(difluoromethyl)-1,3,4-oxadiazol-2-yl]-2-{[(3,5-dimethoxyphenyl)methyl](methyl)amino}-2,3-dihydro-1H-isoindol-1-one] |
| 98 | N#Cc1ccc(Cn2ccnc2-c2cc(F)cc(-c3nnc(C(F)F)o3)c2)cn1 [Example 66a, 5-[(2-{3-[5-(difluoromethyl)-1,3,4-oxadiazol-2-yl]-5-fluorophenyl]-1H-imidazol-1-yl)methyl]pyridine-2-carbonitrile] |
